Measured values published in patent US5753483A (priority 1995, dated 1998).

Legend:
[1] = test system: UDP-GlcNAc pyrophosphorylase; assay: Inhibition of pyrophosphorolysis of UDP-[^3 H]GlcNAc by nucleotides (FIG. 3); assay type: biochemical, pig; settings: increasing concentrations; reverse direction
Protocol: Activity was measured in the reverse direction (i.e., production of GlcNAc-1-P) as indicated.
(§1) When measured in the reverse direction, either a direct assay or an indirect assay could be used. […] The incubation mixtures contained the following components in a final volume of 50 μl: 5 mM sodium pyrophosphate, 250 uM UDP-[^3 H]GlcNAc (2.2 Ci/mmol), 100 mM Tris HCl buffer, pH 8.5, 2 mM MgCl2, and various amounts of enzyme at the different stages of purification. […] The suspension was vortexed vigorously for 2 minutes, and was then centrifuged in a microfuge. The supernatant liquid was removed and saved, and the charcoal was washed with 1 ml of water. The supernatant liquid from this wash was combined with the first supernatant liquid, and an aliquot was removed and counted, as a measure of the formation of GlcNAc-1-P.

enzyme from bacteria = settings: cited from earlier work
sheep brain enzyme = settings: cited from earlier work
Pyrophosphorylase = target: T1, Pyrophosphorylase (Sus scrofa, UniProt F1S210); assay: Specificity of pyrophosphorylase (reverse direction); assay type: biochemical, pig
T1 construct: 64 and 55 kDa bands; native about 125 kDa
T1 sequence (F1S210 1-505): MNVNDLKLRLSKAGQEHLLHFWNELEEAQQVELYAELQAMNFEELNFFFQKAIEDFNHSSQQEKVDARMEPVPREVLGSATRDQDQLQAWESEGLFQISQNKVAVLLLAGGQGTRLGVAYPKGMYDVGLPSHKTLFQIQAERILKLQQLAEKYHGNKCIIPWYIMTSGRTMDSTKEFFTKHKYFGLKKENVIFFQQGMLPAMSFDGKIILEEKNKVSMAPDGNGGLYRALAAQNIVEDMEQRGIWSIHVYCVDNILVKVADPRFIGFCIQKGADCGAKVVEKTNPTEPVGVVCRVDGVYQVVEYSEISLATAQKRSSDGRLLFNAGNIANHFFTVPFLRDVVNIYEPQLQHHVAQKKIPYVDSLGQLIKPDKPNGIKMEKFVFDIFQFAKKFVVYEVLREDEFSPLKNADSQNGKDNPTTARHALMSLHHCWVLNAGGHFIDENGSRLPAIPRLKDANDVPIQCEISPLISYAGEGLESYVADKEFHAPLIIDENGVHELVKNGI
Protocol: as §1
(§2) For the indirect assay, a modification of the spectrophotometric method of Munch-Petersen, (1956) Acta Chim. Scand. […] The assay mixtures contained 50 mM Tris-HCl buffer, pH 7.5, 1 mM MgCl2, 0.5 mM ADP, 1 mM glucose, 0.5 mM NADP, 1 mM inorganic pyrophosphate, 2 mM UDP-HexNAc and 2.5 units each of nucleoside diphosphate kinase, hexokinase and glucose-6-P dehydrogenase.
The substrate specificity of the purified enzyme was examined in both the forward and the reverse direction.

[2] = test system: UDP-GlcNAc pyrophosphorylase; settings: reverse direction, at 1 mM inorganic pyrophosphate
Protocol: as §1, §2

[3] = target: T2, UDP-GlcNAc pyrophosphorylase (Sus scrofa, UniProt F1S210); assay: Photoaffinity labeling of purified pyrophosphorylase and its inhibition (FIG. 5); assay type: binding, pig; settings: unlabeled UDP-GalNAc or UDP-glucose
T2 construct: both 64 and 55 kDa bands photolabelled
T2 sequence (F1S210 1-505): as above
Protocol: Enzyme was incubated with radioactive probe in the presence or absence of various inhibitors, and some of the incubations were exposed to UV light to activate the probe. Each incubation was treated with trichloroacetic acid to precipitate the protein, and the pellet was resuspended in SDS and subjected to SDS-PAGE. Radioactive proteins were detected by exposure to film. […]

[4] = test system: UDP-GlcNAc pyrophosphorylase; settings: from 10 μmol GalNAc-1-P or glucose-1-P, and UTP
Protocol: The reaction products, formed in either the forward direction (i.e., uridine diphosphate sugars), or in the reverse direction (i.e., UTP and sugar-i-P's), were isolated by chromatography on a 1×20
column of DEAE-cellulose (HCO3 -), equilibrated in 10 mM NH4 HCO3. After application of the sample, the column was washed with the same solution and the retained products were eluted with 200 ml of a linear 10 to 300 mM gradient of NH4 HCO3. Fractions were analyzed for nucleotides by measuring the absorption at 260 nm, for radioactivity by scintillation counting, and for hexosamine by the Reissig test (J. Biol. Chem., 217, 959-966, 1955) or the or the Elson Morgan assay (Wheat, R. W. (1966) Meth. Enzymol. 8, 60-78). Peak fractions were pooled and concentrated on a rotary evaporator and NH4 H CO3 was removed by evaporation in the presence of triethylamine. The triethylamine was in turn removed by evaporation in the presence of methanol.
The reaction products were identified by chromatography, either directly, or following various treatments such as digestion with phosphodiesterase or alkaline phosphatase, or acid hydrolysis. Nucleotides were identified by TLC in the following systems: PEI plates developed in 0.2M and 0.4M solutions of LiCl; cellulose plates in ethanol: 1M ammonium acetate, pH 7.3 (7:3), or silica gel plates in ethanol: 1M ammonium acetate, pH 5.0 (7:3). N-acetyl-hexosamines were released from nucleotides by mild acid hydrolysis (0.01 N HCl, 100° C., 15 minutes) and identified by chromatography on borate-treated paper in n-butanol:pyridine:water (6:4:3) as described earlier by Cardini and Leloir, (1953) Arch. Biochem. Biophys., 45, 317-324.
After deproteinization, the aqueous phase was applied to a column of DE-52 and sugar phosphates and nucleoside diphosphate sugars were separated with a gradient of NH4 HCO3, as shown in FIG. 4. […] The peak was pooled and subjected to TLC in 3 different solvent systems as described above.
The characterization of these products was also based on the products produced by phosphosdiesterase, mild acid hydrolysis and other treatments.

[5] = test system: UDP-GlcNAc pyrophosphorylase; settings: calf liver and Staphylococcus aureus preparations; cited from earlier work

CC(=O)N[C@H]1[C@@H](OP(=O)(O)OP(=O)(O)OC[C@H]2O[C@@H](n3ccc(=O)[nH]c3=O)[C@H](O)[C@@H]2O)O[C@H](CO)[C@H](O)[C@@H]1O [UDP-GalNAc, UDP-N-acetylgalactosamine]
inhibition of reaction with UDP-[^3 H]GlcNAc [1]: inhibited by increasing concentrations
activity relative to UDP-GlcNAc (enzyme from bacteria): 2.6%
activity as substrate (in words) (sheep brain enzyme): not with UDP-GalNAc
substrate preference, reverse direction (Pyrophosphorylase): preferred UDP-GalNAc over UDP-GlcNAc
Activity (Pyrophosphorylase; 5 mM, PP = 1 mM): 19.7 nmol/min
Relative Activity (Pyrophosphorylase; 5 mM, PP = 1 mM, UDP-GalNAc = 100): 100%
Km [2]: 200 µM
Vmax [2]: 31.3 nmol/min
inhibition of labeling [3]: also blocked, although not nearly as effectively
amount formed [4]: 8.2 µmol
amount formed, percent [4]: 82%
rate of phosphorolysis relative to UDP-GlcNAc [5]: about 2.8%
